The text below walks through data of patent US20090246776A1, “Modulators of scarb-1 for treating acne or hyperseborrhea” (GALDERMA RESEARCH & DEVELOPMENT, priority 2006, published 2009).

Molecules are shown by their SMILES.

The test system of this assay is SCARB-1 gene. The following applies: gonadectomized male mice, short-term treatment; effect not visible at 18, 24, 48 and 96 hours.

Protocol: The expression of the genes was analyzed on an Affymetrix station (microfluidic model; hybridization oven; scanner; computer) following the protocols provided by the company. Briefly, the total RNA isolated from the tissues is transcribed to cDNA. From the double-stranded cDNA, a cRNA labeled with biotin is synthesized using T7 polymerase and a precursor NTP conjugated to biotin. The cRNAs are then fragmented to small sized fragments. All the molecular biology steps are checked using the Agilent “Lab on a chip” system in order to confirm the good efficiencies of the enzymatic reactions. The Affymetrix chip is hybridized with the biotinylated cRNA, rinsed and then fluorescence labeled using a fluorophore conjugated to streptavidin. After washings, the chip is scanned and the results are calculated using the MAS5 software provided by Affymetrix. An expression value is obtained for each gene as well as the indication of the significance of the value obtained.
B. Male mice were gonadectomized and treated with the vehicle or DHT. A kinetic study of the expression of the gene from 15 minutes to 96 hours was carried out. For this, the preputial glands were removed for a period ranging up to 4 days (androgenic treatment alone observation of a short-term kinetics), the RNA was isolated and the expression of the genes was analyzed by the Affymetrix technique (FIG. 2).

For `C[C@]12CCC(=O)C[C@@H]1CC[C@@H]1[C@@H]2CC[C@]2(C)[C@@H](O)CC[C@@H]12` [DHT, Dihydrotestosterone], the “mRNA for SCARB-1 in the mouse preputial gland” value was “not induced”.
